“And” between values parts separate entries of the source, which are not always exact repeats. Identical values can stand only once. Toxic doses and inconclusive results are not listed.
System: L1210 leukemia ip in BDF1 mice, survival T/C
Assay: NCI In Vivo Anticancer Drug Screen. Data for tumor model L1210 Leukemia (intraperitoneal) in B6D2F1 (BDF1) mice
Settings: endpoint: mean survival time, higher = longer survival
Method in brief: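 Ratio derived from survival: compound-dosed mice over vehicle-dosed mice, all bearing a transplantable tumor.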

[1] = dose: 50.0 mg/kg/injection, schedule: Q01DX001 (ip), vehicle: carboxymethylcellulose (CMC)
[2] = dose: 100.0 mg/kg/injection, schedule: Q01DX001 (ip), vehicle: carboxymethylcellulose (CMC)
[3] = dose: 200.0 mg/kg/injection, schedule: Q01DX001 (ip), vehicle: carboxymethylcellulose (CMC)
[4] = dose: 400.0 mg/kg/injection, schedule: Q01DX001 (ip), vehicle: carboxymethylcellulose (CMC)
[5] = dose: 100.0 mg/kg/injection, schedule: Q01DX009 (ip), vehicle: Klucel (hydroxypropylcellulose) (HPC)
[6] = dose: 200.0 mg/kg/injection, schedule: Q01DX009 (ip), vehicle: Klucel (hydroxypropylcellulose) (HPC)
[7] = dose: 400.0 mg/kg/injection, schedule: Q01DX009 (ip), vehicle: Klucel (hydroxypropylcellulose) (HPC)
[8] = dose: 100.0 mg/kg/injection, schedule: Q04DX003 (ip), vehicle: saline with Tween-80
[9] = dose: 200.0 mg/kg/injection, schedule: Q04DX003 (ip), vehicle: saline with Tween-80
[10] = dose: 400.0 mg/kg/injection, schedule: Q04DX003 (ip), vehicle: saline with Tween-80
[11] = dose: 100.0 mg/kg/injection, schedule: Q01DX001 (ip), vehicle: saline
[12] = dose: 200.0 mg/kg/injection, schedule: Q01DX001 (ip), vehicle: saline
[13] = dose: 400.0 mg/kg/injection, schedule: Q01DX001 (ip), vehicle: saline
[14] = dose: 100.0 mg/kg/injection, schedule: Q04DX003 (ip), vehicle: saline
[15] = dose: 200.0 mg/kg/injection, schedule: Q04DX003 (ip), vehicle: saline

`CC(=O)C(C(C)=O)C(C)=O.CC(=O)C(C(C)=O)C(C)=O.CC(=O)C(C(C)=O)C(C)=O.[Cr]` was tested, and the T/C [1] was 100 % of control, the T/C [2] was 94 % of control and the T/C [3] was 105 % of control. The T/C [4] was 100 % of control.

With `CCOC(=O)Nc1cccc(C)c1C` the T/C [5] was 100 % of control, the T/C [6] was 107 % of control and the T/C [7] was 104 % of control.

For `Cc1ccc(S(=O)(=O)Oc2c(Cl)c(Cl)c(Cl)c(Cl)c2Cl)cc1`, the T/C (dose: 100.0 mg/kg/injection, schedule: Q01DX001 (ip), vehicle: other) was 94 % of control, the T/C (dose: 100.0 mg/kg/injection, schedule: Q01DX009 (ip), vehicle: other) was 92 % of control and the T/C (dose: 100.0 mg/kg/injection, schedule: Q04DX003 (ip), vehicle: other) was 92 % of control. The T/C (dose: 200.0 mg/kg/injection, schedule: Q01DX001 (ip), vehicle: other) was 102 % of control, the T/C (dose: 200.0 mg/kg/injection, schedule: Q01DX009 (ip), vehicle: other) was 86 % of control and the T/C (dose: 200.0 mg/kg/injection, schedule: Q04DX003 (ip), vehicle: other) was 93 % of control. For the same compound, the T/C (dose: 400.0 mg/kg/injection, schedule: Q01DX001 (ip), vehicle: other) was 88 % of control and the T/C (dose: 400.0 mg/kg/injection, schedule: Q04DX003 (ip), vehicle: other) was 90 % of control.

With `[O-][N+](=Nc1ccc2c(c1)Cc1ccccc1-2)c1ccc2c(c1)Cc1ccccc1-2` the T/C [8] was 96 % of control, the T/C [9] was 92 % of control and the T/C [10] was 91 % of control.

In the case of `CS/C(N)=N\C(=S)Nc1ccccc1`, the T/C [8] is reported as 95 % of control, the T/C [9] is reported as 97 % of control and the T/C [10] is reported as 101 % of control.

`Clc1ccccc1C[P+](c1ccccc1)(c1ccccc1)c1ccccc1` was tested, and the T/C (dose: 12.5 mg/kg/injection, schedule: Q01DX001 (ip), vehicle: saline) was 92 % of control, the T/C (dose: 25.0 mg/kg/injection, schedule: Q01DX001 (ip), vehicle: saline) was 106 % of control and the T/C (dose: 50.0 mg/kg/injection, schedule: Q01DX001 (ip), vehicle: saline) was 100 % of control.

`O=C(Cc1ccccc1)NC1=C(NCc2ccccc2)C(=O)c2ccccc2C1=O` was tested, and the T/C [8] was 105 % of control, the T/C [9] was 98 % of control and the T/C [10] was 96 % of control.

For `Cc1cccc(Nc2nc(N)nc(N)c2N=O)c1C`, the T/C (dose: 100.0 mg/kg/injection, schedule: Q01DX Z (ip), vehicle: methylcellulose (MC)) was 96 % of control and the T/C (dose: 200.0 mg/kg/injection, schedule: Q01DX Z (ip), vehicle: methylcellulose (MC)) was 102 % of control.

In the case of `Cc1c(-[n+]2ccccc2)[nH]c2ccccc12`, the T/C (dose: 5.0 mg/kg/injection, schedule: Q01DX001 (ip), vehicle: saline) is reported as 103 % of control, the T/C (dose: 10.0 mg/kg/injection, schedule: Q01DX001 (ip), vehicle: saline) is reported as 103 % of control and the T/C (dose: 20.0 mg/kg/injection, schedule: Q01DX001 (ip), vehicle: saline) is reported as 101 % of control. For the same compound, the T/C (dose: 40.0 mg/kg/injection, schedule: Q01DX001 (ip), vehicle: saline) was 104 % of control, the T/C (dose: 80.0 mg/kg/injection, schedule: Q01DX001 (ip), vehicle: saline) was 106 % of control and the T/C [11] was 92 % of control.

In the case of `Cc1ccc([P+](=O)O)cc1Cl`, the T/C [11] is reported as 100 % of control, the T/C [12] is reported as 93 % of control and the T/C [13] is reported as 88 % of control.

With `Cc1c2c(cc3c1[nH]c1ccccc13)C(C)N(C)CC2` (configuration not stated) the T/C (dose: 14.6 mg/kg/injection, schedule: Q01DX Z (ip), vehicle: saline) was 110 % of control, the T/C (dose: 22.0 mg/kg/injection, schedule: Q01DX Z (ip), vehicle: saline) was 111 % of control and the T/C (dose: 32.5 mg/kg/injection, schedule: Q01DX015 (ip), vehicle: carboxymethylcellulose (CMC)) was 107 % of control. For the same compound, the T/C (dose: 33.0 mg/kg/injection, schedule: Q01DX Z (ip), vehicle: saline) was 113 % of control, the T/C [1] was 109 % of control and the T/C (dose: 50.0 mg/kg/injection, schedule: Q01DX Z (ip), vehicle: saline) was 119 % of control. For the same compound, the T/C (dose: 75.0 mg/kg/injection, schedule: Q01DX015 (ip), vehicle: carboxymethylcellulose (CMC)) was 108 % of control, the T/C [2] was 109 % of control and the T/C (dose: 150.0 mg/kg/injection, schedule: Q01DX015 (ip), vehicle: carboxymethylcellulose (CMC)) was 118 % of control. The T/C (dose: 150.0 mg/kg/injection, schedule: Q01DX Z (ip), vehicle: saline) was 166 % of control, the T/C [3] was 106 % of control and the T/C (dose: 200.0 mg/kg/injection, schedule: Q01DX Z (ip), vehicle: carboxymethylcellulose (CMC)) was 100 % of control. For the same compound, the T/C (dose: 300.0 mg/kg/injection, schedule: Q01DX015 (ip), vehicle: carboxymethylcellulose (CMC)) was 118 % of control, the T/C (dose: 300.0 mg/kg/injection, schedule: Q01DX Z (ip), vehicle: carboxymethylcellulose (CMC)) was 107 % of control and the T/C [4] was 98 % of control. For the same compound, the T/C (dose: 750.0 mg/kg/injection, schedule: Q01DX001 (ip), vehicle: carboxymethylcellulose (CMC)) was 110 % of control and the T/C (dose: 1500.0 mg/kg/injection, schedule: Q01DX001 (ip), vehicle: carboxymethylcellulose (CMC)) was 114 % of control.

With `CC1(C)CC(N)CC(C)(C)N1O` the T/C [14] was 100 % of control and the T/C [15] was 97 % of control.

With `CC(=O)c1ccc(OC(=O)Nc2ccc(C)cc2)cc1` the T/C [5] was 109 % of control, the T/C [6] was 105 % of control and the T/C [7] was 88 % of control.

For `COc1ccc(NC(=O)Oc2ccccc2C(N)=O)c(OC)c1`, the T/C (dose: 25.0 mg/kg/injection, schedule: Q01DX009 (ip), vehicle: Klucel (hydroxypropylcellulose) (HPC)) was 109 % of control, the T/C (dose: 50.0 mg/kg/injection, schedule: Q01DX009 (ip), vehicle: Klucel (hydroxypropylcellulose) (HPC)) was 102 % of control and the T/C [5] was 103 % of control and 112 % of control.

For `C[C@]12CC[C@H]3C(=CCc4cc(O)ccc43)[C@@H]1CCC2=O`, the T/C (dose: 100.0 mg/kg/injection, schedule: Q01DX001 (sc), vehicle: steriod suspending solution) was 94 % of control, the T/C (dose: 200.0 mg/kg/injection, schedule: Q01DX001 (sc), vehicle: steriod suspending solution) was 100 % of control and the T/C (dose: 400.0 mg/kg/injection, schedule: Q01DX001 (sc), vehicle: steriod suspending solution) was 91 % of control.

`O=S(=O)(O)c1ccc2c(N=Nc3ccc(S(=O)(=O)N(CCCl)CCCl)cc3)c(O)c(S(=O)(=O)O)cc2c1` was tested, and the T/C (dose: 50.0 mg/kg/injection, schedule: Q04DX003 (ip), vehicle: Klucel (hydroxypropylcellulose) (HPC)) was 106 % of control, the T/C (dose: 100.0 mg/kg/injection, schedule: Q04DX003 (ip), vehicle: Klucel (hydroxypropylcellulose) (HPC)) was 90 % of control and the T/C (dose: 200.0 mg/kg/injection, schedule: Q04DX003 (ip), vehicle: Klucel (hydroxypropylcellulose) (HPC)) was 93 % of control.

`CC1=C(C)C(=O)c2c(OC(=O)c3ccccc3)ccc(OC(=O)c3ccccc3)c2C1=O` was tested, and the T/C (dose: 12.5 mg/kg/injection, schedule: Q01DX009 (ip), vehicle: saline) was 100 % of control, the T/C (dose: 25.0 mg/kg/injection, schedule: Q01DX009 (ip), vehicle: saline) was 99 % of control and the T/C (dose: 50.0 mg/kg/injection, schedule: Q01DX009 (ip), vehicle: saline) was 92 % of control. For the same compound, the T/C (dose: 50.0 mg/kg/injection, schedule: Q04DX003 (ip), vehicle: saline) was 95 % of control, the T/C (dose: 100.0 mg/kg/injection, schedule: Q01DX009 (ip), vehicle: saline) was 92 % of control and the T/C [14] was 98 % of control and 91 % of control. The T/C (dose: 200.0 mg/kg/injection, schedule: Q01DX009 (ip), vehicle: saline) was 87 % of control, the T/C [15] was 90 % of control and the T/C (dose: 400.0 mg/kg/injection, schedule: Q04DX003 (ip), vehicle: saline) was 92 % of control and 91 % of control.

With `CCCC/C(=N/Nc1ccc([N+](=O)[O-])cc1[N+](=O)[O-])c1ccc(Cl)cc1` the T/C [11] was 98 % of control, the T/C [12] was 88 % of control and the T/C [13] was 102 % of control.

For `O=C(O)C(=O)c1c(O)n(-c2ccccc2)c2ccccc12`, the T/C (dose: 25.0 mg/kg/injection, schedule: Q01DX001 (ip), vehicle: Klucel (hydroxypropylcellulose) (HPC)) was 95 % of control, the T/C (dose: 50.0 mg/kg/injection, schedule: Q01DX001 (ip), vehicle: Klucel (hydroxypropylcellulose) (HPC)) was 95 % of control and the T/C (dose: 100.0 mg/kg/injection, schedule: Q01DX001 (ip), vehicle: Klucel (hydroxypropylcellulose) (HPC)) was 93 % of control and 92 % of control.

For `CCOC(=O)COc1ccc(Cl)cc1C(=O)OCC`, the T/C (dose: 100.0 mg/kg/injection, schedule: Q04DX002 (sc), vehicle: olive oil, sesame oil, peanut oil) was 105 % of control, the T/C (dose: 200.0 mg/kg/injection, schedule: Q04DX002 (sc), vehicle: olive oil, sesame oil, peanut oil) was 118 % of control and the T/C (dose: 400.0 mg/kg/injection, schedule: Q04DX002 (sc), vehicle: olive oil, sesame oil, peanut oil) was 111 % of control.
